Consider 52 compounds from patent US10710986B2, “PD-1/PD-L1 inhibitors” (Gilead Sciences, Inc., priority 2018, dated 2020).

Molecules are shown by their SMILES.

The target in the assay is PD-1/PD-L1 (Homo sapiens (Human), UniProt Q9NZQ7). In words: PD-1/PD-L1 biochemical protein-protein interaction assay (ALPHA). As to conditions: 0.3 nM His tagged PD-L1, 2.5 nM biotinylated Fc-PD-1, 60 minutes at 25° C., read-out: IC50 PD-L1-PD1.
Sequence of PD-1/PD-L1 (Q9NZQ7 19-238): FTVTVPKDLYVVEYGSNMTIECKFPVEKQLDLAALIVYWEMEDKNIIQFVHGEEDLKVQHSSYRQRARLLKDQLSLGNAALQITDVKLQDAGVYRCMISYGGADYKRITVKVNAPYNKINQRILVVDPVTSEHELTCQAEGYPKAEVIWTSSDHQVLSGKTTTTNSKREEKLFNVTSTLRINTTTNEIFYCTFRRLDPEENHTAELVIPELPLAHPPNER
As usually defined, the IC50 is the midpoint of a concentration-inhibition curve. Consider `COc1nc(-c2cccc(-c3cccc(-c4cnc(CNC[C@@H]5CNC(=O)C5)c(OC)n4)c3Cl)c2Cl)cnc1CNC[C@@H]1CNC(=O)C1` [compound 480], for which the IC50 worked out at 0.064 nM.
On to `COc1nc(-c2cccc(-c3cccc(-c4cnc(CN5C[C@@H](O)[C@@H](O)C5)c(OC)n4)c3Cl)c2Cl)cnc1CNC[C@@H]1CCC(=O)N1` [compound 524], for which the IC50 is 0.115 nM.
Turning to `COc1nc(-c2cccc(-c3cccc(-c4cnc(CNC[C@@H]5CCC(=O)N5)c(OC)n4)c3Cl)c2Cl)cnc1CNCC1CCC(C(N)=O)O1` (stereo partly shown) [compound 56], the IC50 was found to be 0.09 nM.
With `COc1nc(-c2cccc(-c3cccc(-c4cnc(CN5CCC6(CCC(=O)N6)CC5)c(OC)n4)c3Cl)c2Cl)cnc1CNC[C@H]1CCC(=O)N1` [compound 203] the figure was 0.129 nM; with `COc1nc(-c2cccc(-c3cccc(-c4cnc(CN[C@H]5C[C@H](OC)C5)c(OC)n4)c3Cl)c2Cl)cnc1CNC[C@@H]1CCC(=O)N1` [compound 364], 0.244 nM; with `COc1nc(-c2cccc(-c3cccc(-c4cnc(CN[C@H](C)[C@@H]5CCC(=O)N5)c(OC)n4)c3Cl)c2Cl)cnc1CN[C@H](C)[C@@H]1CCC(=O)N1` [compound 601], 0.196 nM.
`COc1nc(-c2cccc(-c3cccc(-c4cnc(CN5CC[C@H]6CNC(=O)[C@H]65)c(OC)n4)c3Cl)c2Cl)cnc1CNC[C@@H]1CCC(=O)N1` [compound 287]: the IC50 came out at 0.34 nM.
In the case of `COc1nc(-c2cccc(-c3cccc(-c4cnc(CN[C@H]5CC[C@H](O)C5)c(OC)n4)c3Cl)c2Cl)cnc1CNC[C@@H]1CCC(=O)N1` [compound 355] it was 0.129 nM; in that of `COc1nc(-c2cccc(-c3cccc(-c4cnc(CN5CCCC5(C)CO)c(OC)n4)c3Cl)c2Cl)cnc1CNC[C@@H]1CCC(=O)N1` (stereo partly shown) [compound 453], 0.139 nM; in that of `COc1nc(-c2cccc(-c3cccc(-c4cnc(CNC[C@@H]5CCC(=O)N5)c(OC)n4)c3Cl)c2Cl)cnc1CNCC1CCCCO1` (stereo partly shown) [compound 55], 0.26 nM.
As for `COc1nc(-c2cccc(-c3cccc(-c4cnc(CN[C@@H]5CCO[C@@H]5C)c(OC)n4)c3Cl)c2Cl)cnc1CNC[C@@H]1CCC(=O)N1` [compound 295], the IC50 came out at 0.414 nM.
For the compound `COc1nc(-c2cccc(-c3cccc(-c4cnc(CN5CCC(c6nnc[nH]6)C5)c(OC)n4)c3Cl)c2Cl)cnc1CNC[C@@H]1CCC(=O)N1` (stereo partly shown) [compound 462], the IC50 was 0.346 nM.
In the case of `COc1nc(-c2cccc(-c3cccc(-c4cnc(CNCC[C@@H]5CNC(=O)C5)c(OC)n4)c3Cl)c2Cl)cnc1CNCC[C@@H]1CNC(=O)C1` [compound 538] it was 0.199 nM.
In the case of `COc1nc(-c2cccc(-c3cccc(-c4cnc(CN[C@@H]5CCOC[C@H]5C)c(OC)n4)c3Cl)c2Cl)cnc1CNC[C@@H]1CCC(=O)N1` [compound 223] it was 0.584 nM; in that of `COc1nc(-c2cccc(-c3cccc(-c4cnc(CN5CC[C@](C)(O)C5)c(OC)n4)c3Cl)c2Cl)cnc1CNC[C@@H]1CCC(=O)N1` [compound 510], 0.192 nM; in that of `COc1nc(-c2cccc(-c3cccc(-c4cnc(CN5CC(C(C)(C)O)C5)c(OC5CC5)n4)c3Cl)c2Cl)ccc1CN1CC(C(C)(C)O)C1` [compound 635], 0.098 nM.
With `COc1nc(-c2cccc(-c3cccc(-c4cnc(CN[C@H]5C[C@@H](CO)C5)c(OC)n4)c3Cl)c2Cl)cnc1CNC[C@@H]1CCC(=O)N1` [compound 341] the figure was 0.094 nM.
On to `COc1nc(-c2cccc(-c3cccc(-c4cnc(CNC[C@@H]5CCC(=O)N5)c(OC)n4)c3Cl)c2Cl)cnc1CNCC1CN(S(C)(=O)=O)C1` [compound 547], for which the IC50 was found to be 0.064 nM.
With `COc1nc(-c2cccc(-c3cccc(-c4cnc(C5=NCCN5)c(OC)n4)c3Cl)c2Cl)ccc1CN` [compound 582] the figure was 0.19 nM.
For `COc1nc(-c2cccc(-c3cccc(-c4cnc(CN5CC6(C5)CC(O)(C(F)(F)F)C6)c(OC)n4)c3Cl)c2Cl)cnc1CNC[C@@H]1CCC(=O)N1` [compound 308], the IC50 is 0.337 nM.
As to `COc1nc(-c2cccc(-c3cccc(-c4cnc(CN5CC(F)(CO)C5)c(OC)n4)c3Cl)c2Cl)cnc1CNC[C@@H]1CCC(=O)N1` [compound 252], the IC50 worked out at 0.06 nM.
As for `COc1nc(-c2cccc(-c3cccc(-c4cnc(CNC5CCCN(C(C)=O)C5)c(OC)n4)c3Cl)c2Cl)cnc1CNC[C@H]1CCC(=O)N1` (stereo partly shown) [compound 205], the IC50 was found to be 0.079 nM.
For `COc1nc(-c2cccc(-c3cccc(-c4cnc(CN(C)CC(N)=O)c(OC)n4)c3Cl)c2Cl)cnc1CNC[C@@H]1CCC(=O)N1` [compound 51], the IC50 came out at 0.301 nM.
With `COc1nc(-c2cccc(-c3cccc(-c4cnc(CN(CC5CC5)C[C@@H]5CCC(=O)N5)c(OC)n4)c3Cl)c2Cl)cnc1CNC[C@@H]1CCC(=O)N1` [compound 329] the figure was 0.955 nM.
For `COc1nc(-c2cccc(-c3cccc(-c4cnc(CN5CC6(CNC(=O)C6)C5)c(OC)n4)c3Cl)c2F)ccc1CN1CC2(CNC(=O)C2)C1` [compound 497], the IC50 was 0.276 nM.
With `COc1nc(-c2cccc(-c3cccc(-c4cnc(CN5CC(O)(C6CC6)C5)c(OC)n4)c3Cl)c2Cl)cnc1CNC[C@@H]1CCC(=O)N1` [compound 549] the figure was 0.194 nM; with `COc1nc(-c2cccc(-c3cccc(-c4cnc(C5=NC[C@H](C)N5)c(OC)n4)c3Cl)c2Cl)cnc1C1=NC[C@H](C)N1` [compound 121], 0.064 nM.
On to `COc1nc(-c2cccc(-c3cccc(-c4cnc(C5=NCCN5)c(OC)n4)c3Cl)c2Cl)ccc1CN1CC2(CCC(=O)N2)C1` [compound 641], for which the IC50 worked out at 0.064 nM.
In the case of `CNS(=O)(=O)CCNCc1ncc(-c2cccc(-c3cccc(-c4cnc(CNC[C@@H]5CCC(=O)N5)c(OC)n4)c3Cl)c2Cl)nc1OC` [compound 572], the IC50 amounted to 0.064 nM.
For `COc1nc(-c2cccc(-c3cccc(-c4cnc(CNC[C@@H]5CCC(=O)N5)c(OC)n4)c3Cl)c2Cl)cnc1CNCC(O)CN1CCCC1` (stereo partly shown) [compound 413], the IC50 came out at 0.162 nM.
For `COc1nc(-c2cccc(-c3cccc(-c4cnc(CN5CC6(CNC(=O)C6)C5)c(OC)n4)c3Cl)c2Cl)ccc1CNC[C@@H]1CCC(=O)N1` [compound 633], the 50% inhibitory concentration (IC50) worked out at 0.064 nM.
With `COc1nc(-c2cccc(-c3cccc(-c4cnc(CN5CC(O)(C6CC6)C5)c(OC)n4)c3Cl)c2Cl)cnc1CN1CC(O)(C2CC2)C1` [compound 548] the figure was 0.665 nM.
As to `COc1nc(-c2cccc(-c3cccc(-c4cnc(CN5C[C@H](C)[C@@H](O)C5)c(OC)n4)c3Cl)c2Cl)cnc1CNC[C@@H]1CCC(=O)N1` [compound 487], the IC50 stood at 0.123 nM.
With `COc1nc(-c2cccc(-c3cccc(-c4cnc(CN[C@@H]5COCC[C@H]5O)c(OC)n4)c3Cl)c2Cl)cnc1CNC[C@@H]1CCC(=O)N1` [compound 339] the figure was 0.192 nM.
Turning to `COc1nc(-c2cccc(-c3cccc(-c4cnc(CN[C@@H]5CCC5C)c(OC)n4)c3Cl)c2Cl)cnc1CNC[C@@H]1CCC(=O)N1` (stereo partly shown) [compound 469], the IC50 was 0.26 nM.
For `CCn1cc(CNCc2ncc(-c3cccc(-c4cccc(-c5cnc(CNC[C@@H]6CCC(=O)N6)c(OC)n5)c4Cl)c3Cl)nc2OC)nn1` [compound 32], the IC50 turned out to be 0.187 nM.
With `CNCc1ncc(-c2cccc(-c3cccc(-c4cnc(CNC)c(NC)n4)c3Cl)c2Cl)nc1NC` [compound 74] the figure was 1.34 nM.
With `O=C1CCC2(CN(Cc3ncc(-c4cccc(-c5cccc(-c6cnc(CN7CC8(CCC(=O)N8)C7)c(Cl)n6)c5Cl)c4Cl)nc3Cl)C2)N1` [compound 110] the figure was 0.327 nM; with `COc1nc(-c2cccc(-c3cccc(-c4cnc(CN5CCC[C@@H](F)C5)c(OC)n4)c3Cl)c2Cl)cnc1CNC[C@@H]1CCC(=O)N1` [compound 270], 0.378 nM; with `COc1nc(-c2cccc(-c3cccc(-c4cnc(CN[C@H]5C[C@@H](CO)C5)c(OC)n4)c3Cl)c2Cl)cnc1CN[C@H]1C[C@@H](CO)C1` [compound 150], 0.2 nM.
On to `COc1nc(-c2cccc(-c3cccc(-c4cnc(CN[C@H]5CNC(=O)C5)c(OC)n4)c3Cl)c2Cl)cnc1CNC[C@H]1CCC(=O)N1` [compound 200], for which the IC50 came to 0.132 nM.
Turning to `CSc1nc(-c2cccc(-c3cccc(-c4cnc(CN5CC(O)C5)c(SC)n4)c3Cl)c2Cl)cnc1CN1CC(O)C1` [compound 88], the IC50 turned out to be 0.217 nM.
With `COc1nc(-c2cccc(-c3cccc(-c4cnc(CNC[C@@H]5CCC(=O)N5)c(OC)n4)c3Cl)c2Cl)ccc1CNCc1ccc2[nH]c(C)cc2c1` [compound 155] the figure was 1.65 nM; with `COc1nc(-c2cccc(-c3cccc(-c4cnc(CN5CC6(C5)CN(C(C)=O)C6)c(OC)n4)c3Cl)c2C)cnc1CN1CC2(C1)CN(C(C)=O)C2` [compound 662], 0.082 nM; with `COc1nc(-c2cccc(-c3cccc(-c4cnc(CNC[C@@H]5CCCN5C(C)=O)c(OC)n4)c3Cl)c2Cl)cnc1CNC[C@@H]1CCC(=O)N1` [compound 18], 0.266 nM.
With `COc1nc(-c2cccc(-c3cccc(-c4cnc(CN5CC6(C5)CN(C(C)=O)C6)c(OC)n4)c3Cl)c2Cl)cnc1CN1CC(C)(O)C1` [compound 447] the figure was 0.064 nM; with `COc1nc(-c2cccc(-c3cccc(-c4cnc(CN5CC[C@@H](CO)C5)c(OC)n4)c3Cl)c2Cl)cnc1CN1CC[C@@H](CO)C1` [compound 626], 0.064 nM; with `COc1nc(-c2cccc(-c3cccc(-c4cnc(CNC[C@@H]5CCC(=O)N5)c(OC)n4)c3Cl)c2Cl)cnc1CNCCC1CCCO1` (stereo partly shown) [compound 236], 0.064 nM.
In the case of `COc1nc(-c2cccc(-c3cccc(-c4cnc(CN5CC[C@H](CO)C5)c(OC)n4)c3Cl)c2Cl)cnc1CN1CC[C@H](CO)C1` [compound 624], the IC50 stood at 0.152 nM.
With `COc1nc(-c2cccc(-c3cccc(-c4cnc(CN[C@@H]5C[C@@H]5F)c(OC)n4)c3Cl)c2Cl)cnc1CNC[C@@H]1CCC(=O)N1` [compound 178], the IC50 was 0.553 nM.
For the compound `COc1nc(-c2cccc(-c3cccc(-c4cnc(CNCC[C@H]5CNC(=O)C5)c(OC)n4)c3Cl)c2Cl)cnc1CNCC[C@H]1CNC(=O)C1` [compound 540], the IC50 came out at 0.072 nM.
With `COc1nc(-c2cccc(-c3cccc(-c4cnc(CN5CC6(CNC(=O)C6)C5)c(OC)n4)c3Br)c2Cl)cnc1CN1CC2(CNC(=O)C2)C1` [compound 389] the figure was 0.211 nM.
